Data taken from PubChem BioAssay (NCI).
Values joined by “and” are separate entries in the source; they are usually repeats but may differ in a detail not shown here. Equal entries are not always repeated.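 96-well plates; 48 h exposure; 5 concentrations. Endpoints by linear interpolation between flanking doses. Not reached: highest tested concentration assigned. Abbreviation: GI50, concentration required for 50% inhibition of growth. The concentration for full growth arrest is given as TGI.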

Key:
Assay in all cases: NCI anticancer screen, dose series, 48 h
[1] = test system: HCT-15 colon
[2] = test system: MDA-MB-231 breast
[3] = test system: OVCAR-4 ovarian
[4] = test system: KM12 colon
[5] = test system: SNB-19 CNS
[6] = test system: NCI/ADR-RES ovarian
[7] = test system: NCI-H23 lung
[8] = test system: HS 578T breast
[9] = test system: HL-60(TB) leukemia
[10] = test system: 786-0 renal

| SMILES | GI50 [1] | TGI [1] | GI50 [2] | TGI [2] | GI50 [3] [µM] | TGI [3] [µM] | GI50 [4] | TGI [4] | GI50 [5] | TGI [5] | GI50 [6] | TGI [6] | GI50 [7] | TGI [7] | GI50 [8] [µM] | TGI [8] | GI50 [9] [µM] | TGI [9] | GI50 [10] | TGI [10] |
| --- | --- | --- | --- | --- | --- | --- | --- | --- | --- | --- | --- | --- | --- | --- | --- | --- | --- | --- | --- | --- |
| COc1ncnc(NS(=O)(=O)c2ccc(N=C3C(=O)N(CN4CCN(c5c(F)cc6c(=O)c(C(=O)O)cn(C7CC7)c6c5OC)CC4C)c4ccc(Cl)cc43)cc2)c1OC (stereo not given) | 7.48 µM | 23 µM | 6.3 µM | > 50 µM | 37.7 | > 50 | 13 µM | > 50 µM | > 50 µM | > 50 µM | 8.76 µM | 42.1 µM | 13.5 µM | 47.3 µM | 23.1 | > 50 µM | 14 | > 50 µM | 21.4 µM | > 50 µM |
| COc1cc(NCc2ccc3oc(=O)c(-c4ccccc4)nc3c2)cc(OC)c1OC | – | > 10 µM | – | > 10 µM | – | > 10 | – | > 10 µM | – | > 10 µM | – | > 10 µM | – | > 10 µM | – | > 10 µM | – | > 10 µM | – | > 10 µM |
| CN(C)CCSC1=Nc2ccc(Cl)cc2C(c2ccccc2Cl)=NC1 | 12 µM and 37.8 µM | 25.2 µM and > 100 µM | 10.7 µM and > 100 µM | 22.8 µM and > 100 µM | – | > 100 | 16.5 µM and 44.1 µM | 34.3 µM and > 100 µM | 17.1 µM and > 100 µM | 31.1 µM and > 100 µM | 15 µM and 42.4 µM | 37.1 µM and > 100 µM | 15 µM and 97.1 µM | 30.2 µM and > 100 µM | – | 35.7 µM and > 100 µM | – | 66.5 µM and 80.4 µM | 14.3 µM and > 100 µM | 31.5 µM and > 100 µM |
| CN(C(=O)c1ccc(C(F)(F)F)cc1)c1ccc(Oc2ccc3c(c2)cc(C(=O)N2CCN(Cc4ccc(OC(F)F)cc4)CC2)n3C)nc1 | > 100 µM | > 100 µM | > 80.2 µM | > 100 µM | < 0.01 | > 49.7 | 35.9 µM | > 100 µM | 34.9 µM | > 100 µM | 0.437 µM | > 100 µM | < 0.01 µM | > 100 µM | > 91.5 | > 100 µM | < 0.012 | > 100 µM | > 100 µM | > 100 µM |
| Fc1cc2[nH]ncc2c2c3c(c(-c4cn[nH]c4)nc12)CCCC3 | 0.56 µM | > 61.5 µM | 1.5 µM | 5.24 µM | 1.69 | 8.14 | 1 µM | 7.38 µM | 1.65 µM | 17.1 µM | 2.38 µM | 7.9 µM | 0.958 µM | 4.69 µM | 0.624 | 3.46 µM | 1.81 | 5.53 µM | 2.38 µM | > 28 µM |
| O=C1c2cc3c(cc2-c2c1c1ccc(F)cc1c(=O)n2CCCNCCO)OCO3 | 0.0277 µM | 0.27 µM | 0.255 µM | 1.06 µM | 0.194 | 1.33 | 0.0646 µM | 1.06 µM | 0.0431 µM | 1.16 µM | 0.0374 µM | 1.08 µM | 0.0304 µM | 0.147 µM | 0.381 | 2.68 µM | 0.0291 | 0.198 µM | 0.0335 µM | 0.776 µM |
| C=C(Br)C(C)(Br)CCC(Br)C(C)(C)Cl (stereo not given) | – | 32.7 µM | – | 34.8 µM | – | 34.4 | – | 32 µM | – | 34.4 µM | – | 54.2 µM | – | 36.5 µM | – | 72 µM | – | 16.2 µM | – | 33.5 µM |
| Cc1cc(I)cc(CN(C)CCCN2CCCCC2)c1O | 10.3 µM | 30.7 µM | 18.4 µM | 48.6 µM | 32.7 | > 100 | 16.5 µM | 39.6 µM | 17.4 µM | 40.2 µM | 21.9 µM | 59 µM | 19 µM | 56.5 µM | 9.75 | 75.6 µM | 12.7 | 29.7 µM | 13.7 µM | 26.5 µM |
| CCOC(=O)c1cc2nc3ccccc3c(=O)n2c2ccccc12 | – | > 10 µM | – | > 10 µM | – | > 10 | – | > 10 µM | – | > 10 µM | – | > 10 µM | – | > 10 µM | – | > 10 µM | – | > 10 µM | – | > 10 µM |
| CC(=O)[C@@]12O[C@@H]1CC1C3CCC4=CC(O)CCC4(C)C3CCC12C (stereo not given in full) | 33.1 µM | > 100 µM | 12.5 µM | 26.8 µM | 23.2 | > 100 | 24.7 µM | > 100 µM | 38.8 µM | > 100 µM | 20.4 µM | > 100 µM | 55.8 µM | > 100 µM | 27.9 | 90.2 µM | > 100 | > 100 µM | > 100 µM | > 100 µM |
| CCN(CC)c1ccc(-c2cc(-c3cc(OC)c(OC)c(OC)c3)nc(N3CCOCC3)c2C#N)cc1 | 0.584 µM | > 66.6 µM | 0.519 µM | > 20.8 µM | 7.33 | > 100 | 1.99 µM | > 85.9 µM | 12.8 µM | > 100 µM | 0.709 µM | 27.8 µM | 5.25 µM | > 100 µM | 0.507 | 12.2 µM | 0.463 | 6.08 µM | 1.9 µM | 9.94 µM |
| CC(=O)OC1=CC(n2cc(F)c(=O)[nH]c2=O)OC(C)C1=O (stereo not given) | – | > 100 µM | – | > 100 µM | – | > 100 | – | > 100 µM | – | > 100 µM | – | > 100 µM | – | > 100 µM | – | > 100 µM | – | > 100 µM | – | > 100 µM |
| Cc1cc(O)c(/C=N/C(=S)NCc2ccccc2)c(=O)o1 | – | > 100 µM | – | > 100 µM | – | > 100 | – | > 100 µM | – | > 100 µM | – | > 100 µM | – | > 100 µM | – | > 100 µM | – | > 100 µM | – | > 100 µM |
| Nc1ncnc2c1nnn2C1OC(CO)C(O)C1O (stereo not given) | – | 20.6 µM | 0.232 µM | 3.99 µM | – | 8.48 | – | 6.68 µM | – | > 52.5 µM | – | 9.32 µM | – | 10.8 µM | 0.467 | 4.72 µM | – | 2.16 µM | 0.38 µM | 14 µM |
| COc1ccc(-c2nnc(COc3ccc(C(=O)/C=C/c4ccco4)cc3)o2)cc1 | 1.8 µM | 4.25 µM | 2.99 µM | 10.4 µM | 12.8 | 26.6 | 1.75 µM | 3.62 µM | 5.56 µM | 18.2 µM | 8.62 µM | 25 µM | 7.02 µM | 20.5 µM | 7.43 | 43.1 µM | 2.65 | 7.38 µM | 1.89 µM | 3.65 µM |
| Cn1cnc([N+](=O)[O-])c1S(=O)(=O)Oc1cccc2ccccc12 | 1.97 µM | 4.72 µM | 4.46 µM | 14 µM | 2.03 | 5.96 | 10.4 µM | 31.4 µM | 29 µM | > 100 µM | 7.59 µM | 33 µM | 10 µM | 32.1 µM | 26.5 | > 100 µM | 5.34 | 31.4 µM | 14.4 µM | 29.3 µM |
| N#CC(C#N)=CNC(N)=S | – | > 100 µM | – | > 100 µM | – | > 100 | – | > 100 µM | – | > 100 µM | – | > 100 µM | – | > 100 µM | – | > 100 µM | – | > 100 µM | – | > 100 µM |
| O=S(=O)(CCn1c(Sc2ccccc2)c(Sc2ccccc2)c2ccccc21)c1ccccc1 | – | > 100 µM | – | > 100 µM | – | > 100 | – | > 100 µM | – | > 100 µM | – | > 100 µM | – | > 100 µM | – | > 100 µM | – | > 100 µM | – | > 100 µM |
| COc1cc(/C=C/c2cc(O)c(C(C)=O)c(O)c2)cc2c1O[C@]1(C)CC[C@@H](O)C(C)(C)[C@H]1C2 | 4.68 µM | 35.7 µM | 6.26 µM | 93 µM | 13.5 | 74.5 | 5.41 µM | 45.4 µM | 7.46 µM | > 100 µM | 14.3 µM | 65.8 µM | 10.7 µM | 34.5 µM | 1.87 | 16.2 µM | 4.13 | 23.8 µM | 2.91 µM | 28.9 µM |
| CN1CCN(CCCn2c(=O)c3sc4ncccc4c3n3nnc(-c4ccccc4)c23)CC1 | 6.19 µM | 13.2 µM | 6.88 µM | 13.6 µM | 7.27 | 14 | 4.24 µM | 10.7 µM | 8.41 µM | 15.8 µM | 7.19 µM | 14.2 µM | 8.07 µM | 15.3 µM | 6.47 | 16 µM | 0.795 | 1.73 µM | 7.39 µM | 14.5 µM |
| CC(C)[C@H]1COC(=O)N1[C@@H]1C(=O)N([C@@H](CCC(=O)N2CCN(C3CCCC3)CC2)C(=O)N[C@@H]2CCCc3ccccc32)[C@@H]1/C=C/c1cccc(Br)c1 | 1.69 µM | 3.63 µM | 1.86 µM | 3.77 µM | 2.79 | 15 | 2.17 µM | 5.83 µM | 2.77 µM | 14.5 µM | 2.98 µM | 11.8 µM | 3.46 µM | 16.6 µM | 2.5 | 9.31 µM | 1.91 | 4.9 µM | 2.01 µM | 4.69 µM |
